Measurements taken from patent publication US20140213538A1, “LYSOPHOSPHATIDIC ACID RECEPTOR ANTAGONISTS” (InterMune, Inc., priority 2013, published 2014).

Assays:
Format in all cases: cell-based
LPA/S1P GPCR of interest = target: T1, LPA/S1P GPCR of interest (Homo sapiens, UniProt Q92633); test: Beta-Arrestin based assay (PathHunter)
T1 construct: host or cells: CHO
How it was run: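 EA Parental CHO cells (DiscoverX) were transfected with FuGENE (Roche) using CMV promoter-driven DNA constructs encoding the LPA/S1P GPCR of interest fused to a ProLink tag. Beta-arrestin recruitment in agonist mode was assessed 24-48 hrs later with PathHunter kits. Tests ran in quadruplicate in white 384 well plates, and end point luminescence was fit to a 4 parameter logistic function.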

LPA1 [1] = target: T2, LPA1 (Homo sapiens, UniProt Q92633); test: Ca Flux LPA1 assay; parameters: the full-length cDNA for human LPA1 is obtained by PCR of the reverse transcription reaction; expressed in transfected cells
LPA1 [2] = target: T2, LPA1; test: LPA1 Migration Assay (Oris); parameters: host or cells: primary fibroblasts (lung, dermal), HFL-1, 3T3 and CHO cells expressing LPA1R; settings: read-out: Cell Migration EC50
How it was run: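 Antagonist inhibition was derived by 4-parameter logistic fitting of migrated-cell counts against compound concentration. Dye-loaded, 12-24 h serum-starved fibroblasts, HFL-1, 3T3 or CHO cells expressing LPA1R moved into an Oris detection zone in response to LPA or serum, then were fixed and counted on a high-content reader.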

T2 sequence (Q92633 whole entry): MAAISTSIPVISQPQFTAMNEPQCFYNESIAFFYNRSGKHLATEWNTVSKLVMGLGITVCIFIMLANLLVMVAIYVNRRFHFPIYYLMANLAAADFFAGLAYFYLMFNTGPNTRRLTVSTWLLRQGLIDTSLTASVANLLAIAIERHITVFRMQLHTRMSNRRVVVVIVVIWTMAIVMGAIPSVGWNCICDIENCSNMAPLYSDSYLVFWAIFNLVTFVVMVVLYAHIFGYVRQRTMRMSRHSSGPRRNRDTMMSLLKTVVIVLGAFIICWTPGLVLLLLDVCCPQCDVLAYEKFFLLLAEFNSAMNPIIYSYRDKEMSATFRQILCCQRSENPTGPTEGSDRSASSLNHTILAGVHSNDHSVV
T1 sequence (Q92633 whole entry): as above

Row | Structure (SMILES) | EC50 (LPA/S1P GPCR of interest) [nM] | IC50 (LPA1 [1]) [nM] | EC50 (LPA1 [2]) [nM]
1 | CCc1nc(C(=O)O)c(Oc2ccc(-c3ccc(-c4onc(C)c4NC(=O)O[C@H](C)c4ccccc4)cc3)cc2)o1 [IT434] | < 50 | 50 to 500 | –
2 | Cc1noc(C#Cc2nc3sc(C4(C(=O)O)CC4)cc3s2)c1NC(=O)O[C@H](C)c1ccccc1 [IT102] | – | < 50 | 50 to 500
3 | C[C@@H](OC(=O)Nc1c(C#Cc2nc3sc(C4(C(=O)O)CC4)cc3s2)cnn1C)c1ccccc1 [IT095] | – | < 50 | –
4 | C[C@@H](OC(=O)Nc1c(-c2cc3sc(-c4cc(Cl)c(CC(=O)O)cc4F)cc3s2)nnn1C)c1ccccc1 [IT186] | > 500 | – | > 500
5 | Cc1nsc(-c2cc3sc(-c4cc(F)c(C5(C(=O)O)CC5)c(F)c4)cc3s2)c1NC(=O)O[C@H](C)c1ccccc1 [IT263] | < 50 | – | 50 to 500
6 | CCOc1cc(CC(=O)O)ccc1-c1cc2sc(-c3cnn(C)c3NC(=O)O[C@H](C)c3ccccc3)cc2s1 [IT190] | > 500 | – | > 500
7 | Cc1noc(-c2ccc(-c3ccc(Oc4nc5ccccc5cc4C(=O)O)cc3)cc2)c1NC(=O)O[C@H](C)c1ccccc1 [IT482] | < 50 | – | 50 to 500
8 | C[C@@H](OC(=O)Nc1c(-c2cc3sc(-c4ccc(CC(=O)O)s4)cc3s2)cnn1C)c1ccccc1 [IT147] | 50 to 500 | – | > 500
9 | COC(=O)c1ccccc1Oc1ccc(-c2ccc(-c3nnn(C)c3NC(=O)O[C@H](C)c3ccccc3)cc2)cc1 [IT478] | 50 to 500 | – | 50 to 500
10 | Cc1cc(C2(C(=O)O)CC2)ccc1-c1cc2sc(-c3nnn(C)c3NC(=O)O[C@H](C)c3ccccc3)cc2s1 [IT291] | < 50 | – | 50 to 500
11 | C[C@@H](OC(=O)Nc1c(-c2ccc(-c3ccc(C(C(=O)O)C4CCC4)cc3)cc2)cnn1C)c1ccccc1 (stereo partly shown) [IT151] | < 50 | – | 50 to 500
12 | C[C@@H](OC(=O)Nc1c(-c2ccc(-c3cc(F)c(OC(C)(C)C(=O)O)c(F)c3)cc2)cnn1C)c1ccccc1 [IT503] | 50 to 500 | – | > 500
13 | Cc1noc(-c2ccc(-c3ccc4c(c3)CC(C)(C(=O)O)O4)cc2)c1NC(=O)O[C@H](C)c1ccccc1 (stereo partly shown) [IT498] | < 50 | – | 50 to 500
14 | Cc1cc(CC(=O)O)ccc1-c1cc2sc(-c3cnn(C)c3NC(=O)O[C@H](C)c3ccccc3)cc2s1 [IT169] | 50 to 500 | – | > 500
15 | Cc1nsc(-c2cc3sc(-c4ccc(CC(=O)O)c(Cl)c4)cc3s2)c1NC(=O)O[C@H](C)c1ccccc1 [IT167] | > 500 | – | > 500
16 | Cc1c(C#Cc2cnn(C)c2NC(=O)O[C@H](C)c2ccccc2)sc2c(C)c(C3(C(=O)O)CC3)sc12 [IT110] | < 50 | – | 50 to 500
17 | Cc1noc(-c2ccc(-c3ccc(Oc4scnc4C(=O)O)cc3)cc2)c1NC(=O)O[C@H](C)c1ccccc1 [IT420] | < 50 | – | 50 to 500
18 | C[C@@H](OC(=O)Nc1c(-c2cc3sc(-c4ccc(CC(=O)O)cc4N)cc3s2)nnn1C)c1ccccc1 [IT181] | > 500 | – | > 500
19 | Cc1noc(-c2ccc(-c3ccc(Oc4ccccc4C(=O)O)nn3)cc2)c1NC(=O)O[C@H](C)c1ccccc1 [IT259] | 50 to 500 | – | > 500
20 | C[C@@H](OC(=O)Nc1cccnc1C#Cc1cc2sc(C3(C(=O)O)CC3)cc2s1)c1ccccc1 [IT115] | 50 to 500 | – | > 500
21 | Cc1noc(-c2ccc(-c3ccc(Oc4cnccc4C(=O)O)cc3)cc2)c1NC(=O)O[C@H](C)c1ccccc1 [IT257] | < 50 | – | 50 to 500
22 | C[C@@H](OC(=O)Nc1c(-c2cc3sc(-c4ccc(C5(C(=O)O)CC5)cc4)cc3s2)nnn1C)c1ccccc1 [IT149] | < 50 | – | 50 to 500
23 | C[C@@H](OC(=O)Nc1c(-c2cc(F)c(-c3nc4sc(C5(C(=O)O)CC5)cc4s3)cc2F)cnn1C)c1ccccc1 [IT279] | < 50 | – | 50 to 500
24 | CC(=O)N(C(C)=O)S(=O)(=O)c1ccc(-c2ccc(-c3onc(C)c3NC(=O)O[C@H](C)c3ccccc3)cc2)cc1 [IT130] | > 500 | – | > 500

Row | Structure (SMILES) | EC50 (LPA/S1P GPCR of interest) [nM] | IC50 (LPA1 [1]) [nM] | EC50 (LPA1 [2]) [nM]
25 | C[C@@H](OC(=O)Nc1c(-c2cc3sc(-c4ccc(CC(=O)O)cc4F)cc3s2)nnn1C)c1ccccc1 [IT159] | 50 to 500 | – | > 500
26 | C[C@@H](OC(=O)Nc1c(-c2ccc(-c3ccc(OC(C)(C)C(=O)O)cc3)cc2)cnn1C)c1ccccc1 [IT510] | 50 to 500 | – | > 500
27 | C[C@@H](OC(=O)Nc1c(C#Cc2cc3sc(C4(C(=O)NS(C)(=O)=O)CC4)cc3s2)cnn1C)c1ccccc1 [IT098] | – | < 50 | –
28 | C[C@@H](OC(=O)Nc1c(-c2cc3sc(-c4ccc(Oc5ccccc5C(=O)O)cc4)cc3s2)cnn1C)c1ccccc1 [IT406] | < 50 | – | 50 to 500
29 | COc1cc(CC(=O)O)ccc1-c1cc2sc(-c3nnn(C)c3NC(=O)O[C@H](C)c3ccccc3)cc2s1 [IT183] | > 500 | – | > 500
30 | C[C@@H](OC(=O)Nc1c(-c2cc3sc(-c4ccc(C5(C(=O)O)CC5)cc4Cl)cc3s2)nnn1C)c1ccccc1 [IT390] | < 50 | – | 50 to 500
31 | CCC(C)OC(=O)Nc1c(C)noc1-c1ccc(-c2ccc(Oc3ccccc3C(=O)O)cc2)cc1 (single isomer, unassigned) [IT493] | 50 to 500 | – | > 500
32 | Cc1noc(-c2ccc(-c3ccc(S(=O)(=O)CC4CC4)cc3)cc2)c1NC(=O)O[C@H](C)c1ccccc1 [IT174] | > 500 | – | > 500
33 | C[C@@H](OC(=O)Nc1c(-c2ccc(-c3cc(F)c(OC4(C(=O)O)CC4)c(F)c3)cc2)nnn1C)c1ccccc1 [IT312] | < 50 | – | 50 to 500
34 | C[C@@H](OC(=O)Nc1c(-c2cc3sc(-c4ccc(CC(=O)O)s4)cc3s2)nnn1C)c1ccccc1 [IT179] | 50 to 500 | – | > 500
35 | C[C@@H](OC(=O)Nc1c(-c2ccc(C#CC(=O)N[C@@H](C(=O)O)c3ccccc3)cc2)cnn1C)c1ccccc1 [IT401] | > 500 | – | 50 to 500
36 | Cc1cc(CC(=O)O)ccc1-c1cc2sc(-c3snc(C)c3NC(=O)O[C@H](C)c3ccccc3)cc2s1 [IT170] | 50 to 500 | – | > 500
37 | C[C@@H](OC(=O)Nc1c(-c2cc3sc(-c4ccc(C5(C(=O)O)CC5)cc4Cl)cc3s2)cnn1C)c1ccccc1 [IT389] | < 50 | – | 50 to 500
38 | C[C@@H](OC(=O)Nc1c(-c2cc3sc(-c4ccc(CC(=O)O)cc4Cl)cc3s2)nnn1C)c1ccccc1 [IT168] | > 500 | – | > 500
39 | C[C@@H](OC(=O)Nc1c(-c2cc3sc(-c4cc(Cl)c(C5(C(=O)O)CC5)cc4F)cc3s2)cnn1C)c1ccccc1 [IT284] | 50 to 500 | – | 50 to 500
40 | Cc1noc(-c2ccc(-c3ccc(Oc4nccnc4C(=O)O)cc3)cc2)c1NC(=O)O[C@H](C)c1ccccc1 [IT232] | < 50 | – | 50 to 500
41 | Cc1noc(-c2ccc(-c3ccc(Oc4ncsc4C(=O)O)cc3)cc2)c1NC(=O)O[C@H](C)c1ccccc1 [IT417] | 50 to 500 | – | 50 to 500
42 | Cc1noc(-c2ccc(-c3ccc(NC(=O)OC(C)(C)C)cc3)cc2)c1NC(=O)O[C@H](C)c1ccccc1 [IT194] | > 500 | – | > 500
43 | C[C@@H](OC(=O)Nc1c(-c2ccc(-c3ccc(C(C(=O)O)C4COC4)cc3)cc2)cnn1C)c1ccccc1 (stereo partly shown) [IT150] | 50 to 500 | – | 50 to 500
44 | Cc1noc(-c2ccc(-c3ccc(Oc4cccc(F)c4C(=O)O)cc3)cc2)c1NC(=O)O[C@H](C)c1ccccc1 [IT454] | < 50 | – | 50 to 500
45 | C[C@@H](OC(=O)Nc1c(-c2cc3sc(-c4ccc(C5(C(=O)O)CC5)c(Cl)c4)cc3s2)nnn1C)c1ccccc1 [IT266] | < 50 | – | 50 to 500
46 | C[C@@H](OC(=O)Nc1c(-c2cc3sc(-c4ccc(C5(C(=O)O)CC5)c(F)c4)cc3s2)cnn1C)c1ccccc1 [IT295] | < 50 | – | 50 to 500
47 | C[C@@H](OC(=O)Nc1c(-c2cc3sc(-c4ccc(CC(=O)O)c(Cl)c4)cc3s2)nnn1C)c1ccccc1 [IT166] | 50 to 500 | – | > 500
48 | Cc1nsc(-c2cc3sc(-c4cnc(C5(C(=O)O)CC5)s4)cc3s2)c1NC(=O)O[C@H](C)c1ccccc1 [IT184] | > 500 | – | > 500
